Experiments:
p75, MPZ, NRG1, and Erβ = test: Neuroprotection biomarker panel by ELISA in 3D EngNT (all markers together); type: cell-based, rat; conditions: for all markers (p75, MPZ, NRG1, ERβ); GGF 200 ng/mL pretreatment
Method: (§1) The MPZ content in 3D EngNT cell lysates was determined using the Rat ELISA kit (MyBiosource, San Diego, CA, USA). A standard curve with a range of 0.06 to 18 ng/mL was used to express the concentration as a percentage of ng/mL.
3D EngNT cell lysates were subjected to the Rat NGFR ELISA kit (MyBiosource, San Diego, CA, USA) in accordance with the product specifications. Quantification was obtained through a standard curve ranging from 0.312 to 20 ng/mL.
ERβ concentrations in 3D EngNT lysates were measured using the Rat ERβ ELISA Kit (Cloud-Clone, Houston, TX, USA). The result was given as % ng/mL against a 0.312–20 ng/mL standard curve.

[1] = tested on: 3D EngNT (RSC96/PC12 co-culture); test: ROS production (cytochrome C reduction) in 3D EngNT; type: cell-based, rat; conditions: GGF 200 ng/mL pretreatment, 24 h with intestinal metabolites
Method: In the EngNT in vitro model, superoxide anion release was assessed by measuring cytochrome C reduction. Superoxide dismutase and cytochrome C (from Merck Life Science, Rome, Italy) were incubated for 30 min with both treated and untreated cells. Absorbance at 550 nm was recorded using a spectrometer (Infinite 200 Pro MPlex, Tecan, Männedorf, Switzerland). The results, averaged over five tests performed in triplicate, are expressed as the mean ± standard deviation (%) of lower cytochrome C nanomoles per microgram of protein relative to the control (0 line).

TNFα = TNFα ELISA in 3D EngNT supernatants; type: cell-based, rat; conditions: GGF 200 ng/mL pretreatment, 24 h
Text: TNF-α levels in 3D EngNT supernatants were quantified using the TNF-α ELISA Kit (Merck Life Science, Rome, Italy). The results were obtained using a calibration curve (range: 24.58–6000 pg/mL).

MPZ = MPZ ELISA in 3D EngNT lysates; type: cell-based, rat; conditions: GGF 200 ng/mL pretreatment, 24 h
Method: as §1

ERβ = ERβ ELISA in 3D EngNT lysates; type: cell-based, rat; conditions: GGF 200 ng/mL pretreatment, 24 h
Method: ERβ concentrations in 3[…] lysates were measured using the Rat ERβ ELISA Kit (Cloud-Clone, Houston, TX, USA).

[2] = tested on: NaV 1.7, NaV 1.8, and GABA; test: Nociception-related biomarker panel by ELISA in 3D EngNT (all markers together); type: cell-based, rat; conditions: GGF 200 ng/mL pretreatment, 24 h
Method: Quantification was obtained through a standard curve ranging from 6 to 400 pg/mL. NaV 1.7 was quantified on 3[…] lysates using the SCN9A/Nav1.7 ELISA Kit (LifeSpan BioSciences, Lynnwood, WA, USA). OD was correlated with the standards' concentration (0.312 to 20 ng/mL) using a standard curve. On 3[…] lysates, the Mouse Sodium Channel Protein Type 10 Subunit Alpha (SCN10A) ELISA Kit (MyBiosource, San Diego, CA, USA) quantified NaV 1.8 [64]. Comparing colour intensity (OD) to standard concentration produced a standard curve.

[3] = tested on: 3D EngNT (RSC96/PC12 co-culture); test: MTT cell viability in 3D EngNT under demyelination (GGF 200 ng/mL); type: cell-based, rat; conditions: GGF 200 ng/mL pretreatment, 24 h with intestinal metabolites
Method: RSC96, a rat-derived Schwann cell line (purchased from ATCC), was cultured in Adv DMEM (Thermo Fisher Scientific, Rodano, MI, Italy) containing 1% penicillin-streptomycin, 2 mM L-glutamine, and 5% FBS [46]. The culture was maintained at 37 °C with 5% CO2 and 95% humidity in a 37 °C incubator. Experiments utilised RSC96 cells from passages 10 to 15, which were sub-cultured two or three times weekly.
The ATCC rat neural PC12 cell line was cultured in Advanced RPMI-1640 medium (Thermo Fisher Scientific, Rodano, MI, Italy). This medium contained 5% FBS, 5% horse serum (HS; Merck Life Science, Rome, Italy), and 2 mM glutamine. Cultures were maintained at 37 °C in a 5% CO2 environment with 95% humidity, ensuring they remained below confluency. Assays utilised cells between passages 3 and 13 [47]. PC12 cells are commonly used for in vitro neuroprotective chemical screening, being a suitable neuronal cell line. […]
A standard method described in the literature was employed to assess cell survival after each stimulation using the MTT-based In Vitro Toxicology Assay Kit (Merck Life Science, Rome, Italy). All solubilised materials, whether treated or untreated, were measured at 570 nm with a 690 nm correction using a spectrometer (Infinite 200 Pro MPlex, Tecan, Männedorf, Switzerland). […]

p75 = p75 (NGFR) ELISA in 3D EngNT lysates; type: cell-based, rat; conditions: GGF 200 ng/mL pretreatment, 24 h
Method: 3[…] lysates were subjected to the Rat NGFR ELISA kit (MyBiosource, San Diego, CA, USA) in accordance with the product specifications. Quantification was obtained through a standard curve ranging from 0.312 to 20 ng/mL.

NRG1 = conditions: 3D EngNT, GGF 200 ng/mL pretreatment, 24 h
Method: Starting on day 14 of maturation, GGF at 200 ng/mL was added to the EngNT 3D model to damage peripheral neurons and remove substantial myelin [51]. 3D EngNT was then treated for 24 h with the intestinal metabolite of each previously collected sample.
All ELISA analyses were performed according to the manufacturers’ instructions using specific commercial kits for each biomarker. Absorbance was measured at 450 nm using a microplate reader (Infinite 200 ProMPlex, Tecan, Männedorf, Switzerland). For each assay, a standard calibration curve (range depending on the specific kit) was used to determine analyte concentrations.
NRG1 levels in 3D EngNT supernatants were measured using the FineTest NRG1 Rat ELISA Kit (Wuhan, China) [62].

Row | Molecule | reduction of marker levels compared to the control condition (p75, MPZ, NRG1, and Erβ) | ROS production, antioxidant response (result in words) [1] | TNFα production (result in words) (TNFα) | MPZ levels (result in words) (MPZ) | Erβ levels (result in words) (ERβ) | nociception-related markers NaV 1.7, NaV 1.8, GABA (result in words) [2] | permeability compared to the control (Caco-2 cells; at 4 h, fluorescent tracer, normalised to control) [%] | permeability (result in words) (Caco-2 cells; individual agents, 1–6 h) | cell viability (result in words) [3] | p75 signal (result in words) (p75) | NRG1 levels (result in words) (NRG1)
1 | glial growth factor 2 [GGF] | about 10% | – | – | – | – | – | – | – | – | – | –
2 | CC(=O)N[C@@H](CS)C(=O)O [NAC, N-Acetylcysteine] | – | greatest effect compared to ALA and vitamin B6 | effect slightly inferior to ALA | stronger, more noticeable impact than ALA and vitamin B6 | comparable to ALA and better than vitamin B6 | neuroprotective and hypothetically anti-nociceptive effects | 51 | highest permeability of all agents | – | – | –
3 | N[C@@H](CCC(=O)N[C@@H](CS)C(=O)NCC(=O)O)C(=O)O [GSH, Glutathione] | – | more pronounced reduction | – | stronger, more noticeable impact than ALA and vitamin B6 | comparable to ALA and better than vitamin B6 | neuroprotective and hypothetically anti-nociceptive effects | – | – | almost as strong as ALA and vitamin B6 | comparable to ALA | more biological effects than ALA and vitamin B6 alone
4 | O=c1ccn([C@@H]2O[C@H](COP(=O)(O)O)[C@@H](O)[C@H]2O)c(=O)[nH]1 [UMP, Uridine monophosphate] | – | – | most pronounced reduction, superior to ALA | – | – | neuroprotective and hypothetically anti-nociceptive effects | – | – | effects even more similar | comparable to ALA | –

— publication PMC12730352 (Brain Sciences, 2025)
